Reference: patent US10005774B2, “Syk inhibitors” (Gilead Sciences, Inc., priority 2013, dated 2018)

Target: Syk (Homo sapiens, UniProt P43405)
Assay: High Throughput Syk Biochemical Assay (KinEASE TR-FRET)
Details: TABLE D, 20 μM ATP, 1 μM biotinylated peptide, 0.015 nM Syk, 30 min at room temperature, read-out: IC50
Outline: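 Compounds in DMSO dilution series were tested against Syk, which phosphorylates an XL665-tagged peptide. The phosphoproduct was bound by Eu-labelled phosphotyrosine antibody in a two-step endpoint format.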

| Structure (SMILES) | IC50 |
| --- | --- |
| COc1ccc(-c2cc3nc[nH]c3c(O[C@H](C)[C@H]3CNC(=O)C3)n2)cc1OC [(R)-4-((R)-1-(6-(3,4-dimethoxyphenyl)-3H-imidazo[4,5-c]pyridin-4-yloxy)ethyl)pyrrolidin-2-one] | 513 nM |
| COc1ccc(-c2cc3ncn(C)c3c(O[C@H](C)[C@H]3CNC(=O)C3)n2)cc1F [(R)-4-((R)-1-(6-(3-fluoro-4-methoxyphenyl)-3-methyl-3H-imidazo[4,5-c]pyridin-4-yloxy)ethyl)pyrrolidin-2-one] | 17.2 nM |
| CC(=O)N1CCN(c2ccc(-c3cc4ncn(C)c4c(O[C@H](C)[C@H]4CNC(=O)C4)n3)cc2)CC1 [(R)-4-((R)-1-(6-(4-(4-acetylpiperazin-1-yl)phenyl)-3-methyl-3H-imidazo[4,5-c]pyridin-4-yloxy)ethyl)pyrrolidin-2-one] | 3.14 nM |
| Cc1cc(-c2cc3ncn(C)c3c(O[C@H](C)[C@H]3CNC(=O)C3)n2)ccc1N(C)C [(R)-4-((R)-1-(6-(4-(dimethylamino)-3-methylphenyl)-3-methyl-3H-imidazo[4,5-c]pyridin-4-yloxy)ethyl)pyrrolidin-2-one] | 5.31 nM |
| COc1cc(-c2cc3ncn(C)c3c(O[C@H](C)[C@H]3CNC(=O)C3)n2)ccc1F [(R)-4-((R)-1-(6-(4-fluoro-3-methoxyphenyl)-3-methyl-3H-imidazo[4,5-c]pyridin-4-yloxy)ethyl)pyrrolidin-2-one] | 39.5 nM |
| COc1ccc(-c2cc3ncn(C)c3c(O[C@H](C)[C@H]3CNC(=O)C3)n2)nc1OC [(R)-4-((R)-1-(6-(5,6-dimethoxypyridin-2-yl)-3-methyl-3H-imidazo[4,5-c]pyridin-4-yloxy)ethyl)pyrrolidin-2-one] | 34 nM |
| COc1ccc(-c2cc3ncn(C)c3c(O[C@H](C)[C@H]3CNC(=O)C3)n2)cn1 [(R)-4-((R)-1-(6-(6-methoxypyridin-3-yl)-3-methyl-3H-imidazo[4,5-c]pyridin-4-yloxy)ethyl)pyrrolidin-2-one] | 71.7 nM |
| C[C@@H](Oc1nc(-c2cccc3scnc23)cc2ncn(C)c12)[C@H]1CNC(=O)C1 [(R)-4-((R)-1-(6-(benzo[d]thiazol-4-yl)-3-methyl-3H-imidazo[4,5-c]pyridin-4-yloxy)ethyl)pyrrolidin-2-one] | 184 nM |
| C[C@@H](Oc1nc(C2=CCCCC2)cc2ncn(C)c12)[C@H]1CNC(=O)C1 [(R)-4-((R)-1-(6-cyclohexenyl-3-methyl-3H-imidazo[4,5-c]pyridin-4-yloxy)ethyl)pyrrolidin-2-one] | 124 nM |

Same assay, conditions: table 'ALL NEW COMPOUNDS IN 2014', 20 μM ATP, 1 μM biotinylated peptide, 0.015 nM Syk, 30 min at room temperature, read-out: Syk IC50

| Structure (SMILES) | IC50 |
| --- | --- |
| Cc1nc(-c2cc(O[C@H](C)[C@H]3CNC(=O)C3)c3c(c2)ncn3C2CC2)cn1C [(R)-4-((R)-1-((1-cyclopropyl-5-(1,2-dimethyl-1H-imidazol-4-yl)-1H-benzo[d]imidazol-7-yl)oxy)ethyl)pyrrolidin-2-one] | 6.07 nM |
| Cc1cc(-c2cc(O[C@H](C)[C@H]3CNC(=O)C3)c3c(c2)ncn3C2CC2)nn1C [(R)-4-((R)-1-((1-cyclopropyl-5-(1,5-dimethyl-1H-pyrazol-3-yl)-1H-benzo[d]imidazol-7-yl)oxy)ethyl)pyrrolidin-2-one] | 2.15 nM |
| C[C@@H](Oc1cc(-c2cnn(C(C)(C)CO)c2)cc2ncn(C3CC3)c12)[C@H]1CNC(=O)C1 [(R)-4-((R)-1-((1-cyclopropyl-5-(1-(1-hydroxy-2-methylpropan-2-yl)-1H-pyrazol-4-yl)-1H-benzo[d]imidazol-7-yl)oxy)ethyl)pyrrolidin-2-one] | 1.99 nM |
| C[C@@H](Oc1cc(-c2cnn(CC(C)(C)O)c2)cc2ncn(C3CC3)c12)[C@H]1CNC(=O)C1 [(R)-4-((R)-1-((1-cyclopropyl-5-(1-(2-hydroxy-2-methylpropyl)-1H-pyrazol-4-yl)-1H-benzo[d]imidazol-7-yl)oxy)ethyl)pyrrolidin-2-one] | 1.73 nM |
| C[C@@H](Oc1cc(-c2cnn(C3COC3)c2)cc2ncn(C3CC3)c12)[C@H]1CNC(=O)C1 [(R)-4-((R)-1-((1-cyclopropyl-5-(1-(oxetan-3-yl)-1H-pyrazol-4-yl)-1H-benzo[d]imidazol-7-yl)oxy)ethyl)pyrrolidin-2-one] | 3.21 nM |
| C[C@@H](Oc1cc(-c2cnn(-c3ccncc3)c2)cc2ncn(C3CC3)c12)[C@H]1CNC(=O)C1 [(R)-4-((R)-1-((1-cyclopropyl-5-(1-(pyridin-4-yl)-1H-pyrazol-4-yl)-1H-benzo[d]imidazol-7-yl)oxy)ethyl)pyrrolidin-2-one] | 7.58 nM |
| C[C@@H](Oc1cc(-c2ccnn2C2CCOCC2)cc2ncn(C3CC3)c12)[C@H]1CNC(=O)C1 [(R)-4-((R)-1-((1-cyclopropyl-5-(1-(tetrahydro-2H-pyran-4-yl)-1Hpyrazol-5-yl)-1H-benzo[d]imidazol-7-yl)oxy)ethyl)pyrrolidin-2-one] | 411 nM |
| C[C@@H](Oc1cc(-c2ccc3c(c2)NCCN3C)cc2ncn(C3CC3)c12)[C@H]1CNC(=O)C1 [(R)-4-((R)-1-((1-cyclopropyl-5-(1-methyl-1,2,3,4-tetrahydroquinoxalin-6-yl)-1H-benzo[d]imidazol-7-yl)oxy)ethyl)pyrrolidin-2-one] | 3.83 nM |
| C[C@@H](Oc1cc(-c2ccc3c(cnn3C)c2)cc2ncn(C3CC3)c12)[C@H]1CNC(=O)C1 [(R)-4-((R)-1-((1-cyclopropyl-5-(1-methyl-1H-indazol-5-yl)-1H-benzo[d]imidazol-7-yl)oxy)ethyl)pyrrolidin-2-one] | 5.02 nM |
| C[C@@H](Oc1cc(-c2ccn(C)n2)cc2ncn(C3CC3)c12)[C@H]1CNC(=O)C1 [(R)-4-((R)-1-((1-cyclopropyl-5-(1-methyl-1H-pyrazol-3-yl)-1H-benzo[d]imidazol-7-yl)oxy)ethyl)pyrrolidin-2-one] | 10.6 nM |
| C[C@@H](Oc1cc(-c2cnn(C)c2)cc2ncn(C3CC3)c12)[C@H]1CNC(=O)C1 [(R)-4-((R)-1-((1-cyclopropyl-5-(1-methyl-1H-pyrazol-4-yl)-1H-benzo[d]imidazol-7-yl)oxy)ethyl)pyrrolidin-2-one] | 4.44 nM |
| C[C@@H](Oc1cc(-c2cnc(C(C)(C)O)s2)cc2ncn(C3CC3)c12)[C@H]1CNC(=O)C1 [(R)-4-((R)-1-((1-cyclopropyl-5-(2-(2-hydroxypropan-2-yl)thiazol-5-yl)-1H-benzo[d]imidazol-7-yl)oxy)ethyl)pyrrolidin-2-one] | 1.41 nM |
| C[C@@H](Oc1cc(-c2cnc(C3CCOCC3)s2)cc2ncn(C3CC3)c12)[C@H]1CNC(=O)C1 [(R)-4-((R)-1-((1-cyclopropyl-5-(2-(tetrahydro-2H-pyran-4-yl)thiazol-5-yl)-1H-benzo[d]imidazol-7-yl)oxy)ethyl)pyrrolidin-2-one] | 0.54 nM |
| C[C@@H](Oc1cc(-c2ccc(N3CCN(C4COC4)CC3)cc2F)cc2ncn(C3CC3)c12)[C@H]1CNC(=O)C1 [(R)-4-((R)-1-((1-cyclopropyl-5-(2-fluoro-4-(4-(oxetan-3-yl)piperazin-1-yl)phenyl)-1H-benzo[d]imidazol-7-yl)oxy)ethyl)pyrrolidin-2-one] | 2.76 nM |
| C[C@@H](Oc1cc(-c2cnn(C)n2)cc2ncn(C3CC3)c12)[C@H]1CNC(=O)C1 [(R)-4-((R)-1-((1-cyclopropyl-5-(2-methyl-2H-1,2,3-triazol-4-yl)-1H-benzo[d]imidazol-7-yl)oxy)ethyl)pyrrolidin-2-one] | 22.4 nM |
| Cc1nc(-c2cc(O[C@H](C)[C@H]3CNC(=O)C3)c3c(c2)ncn3C2CC2)cs1 [(R)-4-((R)-1-((1-cyclopropyl-5-(2-methylthiazol-4-yl)-1H-benzo[d]imidazol-7-yl)oxy)ethyl)pyrrolidin-2-one] | 16.7 nM |
